Test results as given in ChEMBL document CHEMBL1932915, “Synthesis and biological evaluation of sialic acid derivatives containing a long hydrophobic chain at the anomeric position and their C-5 linked polymers as potent influenza virus inhibitors” (Bioorg Med Chem, 2012).

Key:
Neuraminidase = Neuraminidase (Influenza A virus, UniProt B4URF0); assay: Inhibition of Avian influenza virus A/DK/HK/313/78 (H5N3) neuraminidase using 4-MU-Neu5Ac as substrate after 30 mins by fluorimetry
[1] = molecular target: Neuraminidase (Influenza A virus (A/Puerto Rico/8/1934(H1N1)), UniProt P03468); assay: Inhibition of Human influenza virus A/PR/8/34 (H1N1) neuraminidase using 4-MU-Neu5Ac as substrate after 30 mins by fluorimetry
Sequence of Neuraminidase (Influenza A virus (A/Puerto Rico/8/1934(H1N1)), UniProt P03468) (P03468 whole entry): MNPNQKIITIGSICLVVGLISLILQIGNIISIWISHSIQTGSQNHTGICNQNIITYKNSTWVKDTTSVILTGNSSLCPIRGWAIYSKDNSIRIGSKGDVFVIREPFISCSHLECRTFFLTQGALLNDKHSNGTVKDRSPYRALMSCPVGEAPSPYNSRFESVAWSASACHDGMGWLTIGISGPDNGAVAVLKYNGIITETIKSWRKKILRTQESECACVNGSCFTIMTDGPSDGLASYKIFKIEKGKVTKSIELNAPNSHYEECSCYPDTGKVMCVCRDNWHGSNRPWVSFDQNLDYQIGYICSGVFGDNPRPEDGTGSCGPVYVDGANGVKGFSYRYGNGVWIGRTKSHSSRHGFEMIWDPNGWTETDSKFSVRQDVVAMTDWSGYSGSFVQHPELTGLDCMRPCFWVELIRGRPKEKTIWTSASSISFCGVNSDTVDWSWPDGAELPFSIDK

[2] = molecular target: Neuraminidase (Influenza A virus (A/Aichi/2/1968(H3N2)), UniProt Q75VQ4); assay: Inhibition of Human influenza virus A/Aichi/2/68 (H3N2) neuraminidase using 4-MU-Neu5Ac as substrate after 30 mins by fluorimetry
Sequence of Neuraminidase (Influenza A virus (A/Aichi/2/1968(H3N2)), UniProt Q75VQ4) (Q75VQ4 whole entry): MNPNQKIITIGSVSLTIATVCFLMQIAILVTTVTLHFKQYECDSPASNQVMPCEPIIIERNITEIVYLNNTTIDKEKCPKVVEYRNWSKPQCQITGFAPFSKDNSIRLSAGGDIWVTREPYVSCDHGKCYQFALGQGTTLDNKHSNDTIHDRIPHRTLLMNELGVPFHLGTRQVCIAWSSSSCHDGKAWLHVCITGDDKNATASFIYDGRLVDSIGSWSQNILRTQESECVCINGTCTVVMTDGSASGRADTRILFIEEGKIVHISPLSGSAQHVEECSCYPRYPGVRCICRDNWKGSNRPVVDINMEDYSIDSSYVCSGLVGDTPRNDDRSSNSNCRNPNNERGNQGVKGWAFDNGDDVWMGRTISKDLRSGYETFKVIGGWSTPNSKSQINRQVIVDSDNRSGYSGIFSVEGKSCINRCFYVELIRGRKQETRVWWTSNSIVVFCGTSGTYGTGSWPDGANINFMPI

[3] = Inhibition of Avian influenza virus A/DK/HK/313/78 (H5N3) hemagglutininin activity in chicken erythrocytes after 1 hr; type: cell-based

Sequence of Neuraminidase (B4URF0 whole entry): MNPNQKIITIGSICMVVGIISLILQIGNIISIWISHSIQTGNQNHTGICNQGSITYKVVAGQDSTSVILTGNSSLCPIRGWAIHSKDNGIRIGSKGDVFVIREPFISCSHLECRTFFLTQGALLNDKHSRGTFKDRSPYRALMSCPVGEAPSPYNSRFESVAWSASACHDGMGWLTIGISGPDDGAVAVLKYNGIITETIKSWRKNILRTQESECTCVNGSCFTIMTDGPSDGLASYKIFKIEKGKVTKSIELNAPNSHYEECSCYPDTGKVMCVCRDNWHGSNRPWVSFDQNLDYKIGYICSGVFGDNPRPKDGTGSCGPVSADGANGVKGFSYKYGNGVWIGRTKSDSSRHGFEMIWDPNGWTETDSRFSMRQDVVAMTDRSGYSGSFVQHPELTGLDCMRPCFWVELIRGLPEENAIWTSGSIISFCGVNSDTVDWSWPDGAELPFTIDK

C=CC(=O)N[C@H]1[C@H]([C@H](O)[C@H](O)CO)O[C@@](SCCCCCCCCCCCC)(C(=O)O)C[C@@H]1O
EC50 (Neuraminidase): 533 µM | EC50 [1]: 1350 µM | EC50 [2]: 428 µM

C=CC(=O)N[C@H]1[C@H]([C@H](O)[C@H](O)CO)OC(O)(C(=O)O)C[C@@H]1O (stereo not given in full)
IC50 [3]: > 250 µM | EC50 (Neuraminidase): 609 µM | EC50 [1]: 2480 µM | EC50 [2]: 1080 µM

C=CC(=O)NCCCCCC(=O)N[C@H]1[C@H]([C@H](O)[C@H](O)CO)O[C@@](SCCCCCCCCCCCC)(C(=O)O)C[C@@H]1O
EC50 (Neuraminidase): 102 µM | EC50 [1]: 743 µM | EC50 [2]: 840 µM
